Laboratory results published in patent US12059420B2 (BRISTOL-MYERS SQUIBB COMPANY, priority 2018, dated 2024).

Target: T1, human IDO1 (Homo sapiens, UniProt P14902)
T1 construct: expressed in transfected cells
Test: IDO inhibition assay in HEK293 cells stably expressing human IDO1 (kynurenine production, Ehrlich reagent, absorbance 490 nm)
Assay type: cell-based
Conditions: 20 hours incubation with compound, 500 nM reference standard = 100% inhibition, read-out: IDO1 HEK Human IC50
In short: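 Kynurenine output of stably IDO1-transfected HEK293 cells was measured by absorbance at 490 nm after mixing supernatant with 0.2% Ehrlich reagent, following TCA stop (0.2% final, 50° C., 30 min). Cells were incubated 20 hours with compound. Inhibition was scaled between DMSO and 500 nM reference standard.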

T1 sequence (P14902 whole entry): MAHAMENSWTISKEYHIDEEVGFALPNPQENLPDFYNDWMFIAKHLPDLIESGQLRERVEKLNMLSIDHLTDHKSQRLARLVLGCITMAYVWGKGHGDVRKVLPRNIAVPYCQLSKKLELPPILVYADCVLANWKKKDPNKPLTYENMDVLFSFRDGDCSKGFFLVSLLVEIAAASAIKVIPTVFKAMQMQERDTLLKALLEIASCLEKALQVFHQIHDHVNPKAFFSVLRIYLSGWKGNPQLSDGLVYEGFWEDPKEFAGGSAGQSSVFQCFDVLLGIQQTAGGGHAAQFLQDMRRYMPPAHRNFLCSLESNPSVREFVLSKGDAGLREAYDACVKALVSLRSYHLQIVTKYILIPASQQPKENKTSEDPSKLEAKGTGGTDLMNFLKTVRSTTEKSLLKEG

SMILES	IC50 [nM]
CCCCNC(=O)Nc1cc(-c2ccccc2-c2nnn[nH]2)nc(N(CCC)Cc2ccccc2)c1 [Example 264, 1-(2-(2-(1H-tetrazol-5-yl)phenyl)-6-(benzyl(propyl)amino)pyridin-4-yl)-3-butylurea]	1800
CCCN(Cc1ccccc1)c1cc(NC(=O)Nc2cc(C)no2)cc(-c2ccccc2-c2nnn[nH]2)n1 [Example 266, 1-(2-(2-(1H-tetrazol-5-yl)phenyl)-6-(benzyl(propyl)amino)pyridin-4-yl)-3-(3-methylisoxazol-5-yl)urea]	2700
CCCN(Cc1ccccc1)c1cc(NC(=O)Nc2ccc(OC(F)(F)F)cc2)cc(-c2ccccc2-c2nnn[nH]2)n1 [Example 268, 1-(2-(2-(1H-tetrazol-5-yl)phenyl)-6-(benzyl(propyl)amino)pyridin-4-yl)-3-(4-(trifluoromethoxy)phenyl)urea]	30.2
CCCN(Cc1ccccc1)c1cc(NC(=O)Nc2ccc(OC(F)F)cc2)cc(-c2ccccc2-c2nnn[nH]2)n1 [Example 271, 1-(2-(2-(1H-tetrazol-5-yl)phenyl)-6-(benzyl(propyl)amino)pyridin-4-yl)-3-(4-(difluoromethoxy)phenyl)urea]	46.3
O=C(Nc1ccc(OC(F)(F)F)cc1)Nc1cc(-c2ccccc2-c2nnn[nH]2)nc(N(Cc2ccccc2)Cc2ccccc2)c1 [Example 273, 1-(2-(2-(1H-Tetrazol-5-yl)phenyl)-6-(dibenzylamino)pyridin-4-yl)-3-(4-(trifluoromethoxy)-phenyl)urea]	609
CCN(Cc1ccccc1)c1cc(NC(=O)Cc2ccc(C#N)cc2)cc(-c2ccccc2-c2nnn[nH]2)n1 [Example 282, N-(2-(2-(1H-Tetrazol-5-yl)phenyl)-6-(benzyl(ethyl)amino)pyridin-4-yl)-2-(4-cyanophenyl)acetamide]	1580
CCN(Cc1ccccc1)c1cc(NC(=O)Cc2cc(C)no2)cc(-c2ccccc2-c2nnn[nH]2)n1 [Example 283]	1150
CCN(Cc1ccccc1)c1cc(NC(=O)Cc2cccnc2)cc(-c2ccccc2-c2nnn[nH]2)n1 [Example 284]	1620
CCN(Cc1ccccc1)c1cc(NC(=O)Cc2ccc(C)nc2)cc(-c2ccccc2-c2nnn[nH]2)n1 [Example 285]	2330
Cc1ccc(NC(=O)Nc2cc(-c3ccccc3-c3nnn[nH]3)nc(N(CC(C)C)C3CCCCC3)c2)cc1 [Example 286, 1-(2-(2-(1H-Tetrazol-5-yl)phenyl)-6-(cyclohexyl(isobutyl)amino)pyridin-4-yl)-3-(p-tolyl)urea]	365
CC(C)CN(c1cc(NC(=O)Nc2ccc(F)cc2F)cc(-c2ccccc2-c2nnn[nH]2)n1)C1CCCCC1 [Example 287, 1-(2-(2-(1H-Tetrazol-5-yl)phenyl)-6-(cyclohexyl(isobutyl)amino)pyridin-4-yl)-3-(2,4-difluorophenyl)urea]	5990
CCCN(Cc1ccccc1)c1cc(NC(=O)Nc2ccc3c(c2)OCO3)cc(-c2ccccc2-c2nnn[nH]2)n1 [Example 288, 1-(2-(2-(1H-Tetrazol-5-yl)phenyl)-6-(benzyl(propyl)amino)pyridin-4-yl)-3-(benzo[d][1,3]dioxol-5-yl)urea]	155
CCCN(Cc1ccccc1)c1cc(NC(=O)Nc2ccc(C(F)(F)F)cc2)cc(-c2ccccc2-c2nnn[nH]2)n1 [Example 289, 1-(2-(2-(1H-Tetrazol-5-yl)phenyl)-6-(benzyl(propyl)amino)pyridin-4-yl)-3-(4-(trifluoromethyl)phenyl)urea]	41.2
CCCN(Cc1ccccc1)c1cc(NC(=O)Cc2ccc(C#N)cc2)cc(-c2ccccc2-c2nn[nH]n2)n1 [Example 290, N-(2-(2-(1H-Tetrazol-5-yl)phenyl)-6-(benzyl(propyl)amino)pyridin-4-yl)-2-(4-cyanophenyl)acetamide]	483
CCCN(Cc1ccccc1)c1cc(NC(=O)Cc2ccc(C)cc2)cc(-c2ccccc2-c2nnn[nH]2)n1 [Example 291]	127
CCCN(Cc1ccccc1)c1cc(NC(=O)Cc2cccnc2)cc(-c2ccccc2-c2nn[nH]n2)n1 [Example 292]	3360
CCCN(Cc1ccccc1)c1cc(NC(=O)Cc2ccc(C)nc2)cc(-c2ccccc2-c2nnn[nH]2)n1 [Example 293]	1370
CCCN(Cc1ccccc1)c1cc(NC(=O)CC2CCC(C)CC2)cc(-c2ccccc2-c2nnn[nH]2)n1 (centres unmarked) [Example 294]	774
CCCN(Cc1ccccc1)c1cc(NC(=O)CC2CCOCC2)cc(-c2ccccc2-c2nnn[nH]2)n1 [Example 295]	3730
CCCN(Cc1ccccc1)c1cc(NC(=O)Cc2cc(C)no2)cc(-c2ccccc2-c2nnn[nH]2)n1 [Example 296]	797
CCCN(Cc1ccccc1)c1cc(NC(=O)Nc2cc(C)on2)cc(-c2ccccc2-c2nnn[nH]2)n1 [Example 297]	270
CCCN(Cc1ccccc1)c1cc(NC(=O)N(C)c2ccc(C(F)(F)F)cc2)cc(-c2ccccc2-c2nnn[nH]2)n1 [Example 298]	38.9
CCCN(Cc1ccccc1)c1cc(NC(=O)NC2CCCCC2)cc(-c2ccccc2-c2nnn[nH]2)n1 [Example 300]	5210
CCCN(Cc1ccccc1)c1cc(NC(=O)Nc2ccc(C)cc2)cc(-c2cc(C)ccc2-c2nnn[nH]2)n1 [Example 301, 1-(2-(Benzyl(propyl)amino)-6-(5-methyl-2-(1H-tetrazol-5-yl)phenyl)pyridin-4-yl)-3-(p-tolyl)urea]	46.1
CCCN(Cc1ccccc1)c1cc(NC(=O)Cc2ccc(C)cc2)cc(-c2cc(C)ccc2-c2nnn[nH]2)n1 [Example 303, N-(2-(Benzyl(propyl)amino)-6-(5-methyl-2-(1H-tetrazol-5-yl)phenyl)pyridin-4-yl)-2-(p-tolyl)acetamide]	102
CCCN(Cc1ccccc1)c1cc(NC(=O)C2CCCCC2)cc(-c2cc(C)ccc2-c2nnn[nH]2)n1 [Example 304, N-(2-(Benzyl(propyl)amino)-6-(5-methyl-2-(1H-tetrazol-5-yl)phenyl)pyridin-4-yl)cyclohexanecarboxamide]	1310

The remaining lines, values ahead:

IC50 [nM]	SMILES
43.3	CCCN(Cc1ccccc1)c1cc(NC(=O)Nc2ccc(C(F)(F)F)cc2F)cc(-c2ccccc2-c2nnn[nH]2)n1 [Example 265, 1-(2-(2-(1H-tetrazol-5-yl)phenyl)-6-(benzyl(propyl)amino)pyridin-4-yl)-3-(2-fluoro-4-(trifluoromethyl)phenyl)urea]
1360	CCCN(Cc1ccccc1)c1cc(NC(=O)Nc2ccc(C)nc2)cc(-c2ccccc2-c2nnn[nH]2)n1 [Example 267, 1-(2-(2-(1H-tetrazol-5-yl)phenyl)-6-(benzyl(propyl)amino)pyridin-4-yl)-3-(6-methylpyridin-3-yl)urea]
26.8	CCN(Cc1ccccc1)c1cc(NC(=O)Nc2ccc(C)cc2)cc(-c2ccccc2-c2nnn[nH]2)n1 [Example 274, 1-(2-(2-(1H-Tetrazol-5-yl)phenyl)-6-(benzyl(ethyl)amino)pyridin-4-yl)-3-(p-tolyl)urea]
26.6	CCN(Cc1ccccc1)c1cc(NC(=O)Nc2ccc(Cl)cc2F)cc(-c2ccccc2-c2nnn[nH]2)n1 [Example 275]
148	CCN(Cc1ccccc1)c1cc(NC(=O)Nc2ccc(C(F)(F)F)cc2)cc(-c2ccccc2-c2nnn[nH]2)n1 [Example 276]
782	CCN(Cc1ccccc1)c1cc(NC(=O)Nc2ccc(OC(F)(F)F)cc2)cc(-c2ccccc2-c2nnn[nH]2)n1 [Example 277]
478	CCN(Cc1ccccc1)c1cc(NC(=O)Nc2ccc3c(c2)OCO3)cc(-c2ccccc2-c2nnn[nH]2)n1 [Example 278]
537	CCOc1ccc(NC(=O)Nc2cc(-c3ccccc3-c3nnn[nH]3)nc(N(CC)Cc3ccccc3)c2)cc1 [Example 279]
554	CCN(Cc1ccccc1)c1cc(NC(=O)Nc2ccc(OC(F)F)cc2)cc(-c2ccccc2-c2nnn[nH]2)n1 [Example 280]
13.7	CCN(Cc1ccccc1)c1cc(NC(=O)Nc2ccc(Cl)cc2Cl)cc(-c2ccccc2-c2nnn[nH]2)n1 [Example 281]
845	CCCN(Cc1ccccc1)c1cc(NC(=O)Nc2cc(C)ccn2)cc(-c2ccccc2-c2nnn[nH]2)n1 [Example 299]
5.5	CCCN(Cc1ccccc1)c1cc(NC(=O)Nc2ccc(Cl)cc2Cl)cc(-c2cc(C)ccc2-c2nnn[nH]2)n1 [Example 302, 1-(2-(Benzyl(propyl)amino)-6-(5-methyl-2-(1H-tetrazol-5-yl)phenyl)pyridin-4-yl)-3-(2,4-dichlorophenyl)urea]
